| SMILES | melting point [°C] |
| --- | --- |
| c1ccc(COc2cc(OCc3ccccc3)c3ccncc3c2)cc1 | 113 to 115 |
| CCOC(=O)Cc1ncnc2c([N+](=O)[O-])cccc12 | 162 to 164 |
| Cc1cccc(-n2nccc2-c2nn(-c3cccc(C(F)(F)F)c3)ccc2=O)c1 | 142 to 143 |
| Cc1cc(C(=O)c2ccc(F)c(C)c2)ccc1F | 128 to 130 |
| CC(=O)c1c2cnnc-2sn1C | 130 to 131 |
| O=C(O)C(F)(F)c1cccc(OCc2ccccc2Cl)c1OCc1ccccc1Cl | 55 to 57 |
| O=C(CCc1ccc(F)cc1)c1cccnc1F | 73 to 74 |
| CC1Sc2c(C(=O)O)c(=O)c3cc(F)c(N4CCNCC4)cc3n21 (stereo not given) | 225 to 227 |
| C#Cc1ncn2c1CN(C)C(=O)c1c(Cl)cccc1-2 | 194 to 195 |
| COc1ccc(-c2nnn(-c3ccc(Cl)cc3Cl)c2N)cc1 | 149 to 151 |
| COC(=O)N1CCC(Nc2nc3ccccc3n2Cc2ccc(F)cc2)C(C)C1 (stereo not given) | 172 |
| CC(C)(C)C(=O)C(CS(=O)(=O)c1ccc(Cl)cc1)n1cncn1 (stereo not given) | 134 |
| O=C(O)c1csc2c(=O)cc(-c3ccccc3)oc12 | 282 to 283 |
| CCOC(=S)Nc1nc(OCc2ccc(F)cc2)ncc1F | 109 to 119 |
| O=C(c1ccc(Cl)cc1)c1ccc2[nH]c(=O)cc(-c3cccc(Cl)c3)c2c1 | 235 |
| C=CCS(=O)(=O)c1cccnc1S(=O)(=O)NC(=O)Nc1nc(OC)cc(OC)n1 | 185 |
| O=C(N(c1ccccc1)c1nc(C(Cl)(Cl)Cl)ns1)C(Cl)(Cl)Cl | 158 |
| OCC1OC(n2c(Br)nc3cc(Cl)c(Cl)cc32)CC1O (stereo not given) | 187 to 188 |
| O=C(NCCO)c1[nH]c2ccc(Cl)cc2c1S(=O)(=O)c1ccccc1 | 198 to 200 |
| O=P(O)(O)Oc1cccc(-c2cn3c(n2)sc2ccccc23)c1 | 205 to 208 |

| SMILES | melting point [°C] |
| --- | --- |
| O=C(C=Cc1cc(OC(=O)c2ccccc2)c(OC(=O)c2ccccc2)c([N+](=O)[O-])c1)c1ccccc1 | 206 to 210 |
| Cc1ccc2c(c1)c(-c1ccc(F)cc1)cn2N | 116 to 120 |
| Oc1ccc(Cn2cc[nH]c2=S)cc1F | 161 to 165 |
| O=Cc1c2ccccc2cc2c(C=O)c3ccccc3cc12 | 247 to 250 |
| O=c1cc2c(nn1-c1ccc(Cl)cc1)-c1cccc(Cl)c1SCC2 | 166 to 168 |
| CCn1ncc2c3onc(-c4ccc(OC)cc4)c3cnc21 | 156 to 157 |
| Cn1ncc2c(c1=O)SCCNC2C(=O)c1ccc([N+](=O)[O-])cc1 (stereo not given) | 230 to 232 |
| O=C1C=C(O)CC(c2cc(C3CCOC3)no2)C1 (stereo not given) | 142 to 144 |
| CS(=O)(=O)c1ccc(-c2cnn(CC(F)(F)F)c(=O)c2SC2CCCCC2)cc1 | 165 to 167 |
| Cn1c(=O)c(-c2ccc(Cl)cc2Cl)cc2c3cc(-c4nc(CN5CCCC5)cs4)ccc3n(C)c21 | 222 to 226 |
| C=CCSc1ccc(-c2nc3cnncc3[nH]2)c(OC)c1 | 240 |
| COCn1c(-c2nccs2)c(Cl)c2cccc(NS(=O)(=O)c3cccs3)c21 | 128 to 129 |
| O=C(Nc1ccc(-n2nc(C3CCCO3)cc2C(F)(F)F)cc1)c1ccncc1F (stereo not given) | 116 to 118 |
| COc1cc2nc(CN(C)C)nc(Cl)c2cc1OC | 78 to 80 |
| O=c1[nH]c2ccccc2n1CCCCN1CCC(c2c[nH]c3ccccc23)CC1 | 196 |
| Cc1nn(C)c2c1nc(O)c1c(C(=O)O)cnn12 | > 300 |
| CC(=O)N1CCN(CC#CCn2cncc2C)C1=O | 93 to 95 |
| CC1(C)CC(=O)c2c(Sc3ccccc3)sc(-c3cc[nH]n3)c2C1 | 231 to 234 |
| N#Cc1cc2c(cc1F)S(=O)(=O)N=CN2C1CC1 | 205 to 207 |
| Fc1cccc(OC2CN(C3CCC(c4c[nH]c5cc(F)ccc45)CC3)C2)c1 (stereo not given) | 117 to 123 |

| SMILES | melting point [°C] |
| --- | --- |
| Nc1ccc(Oc2ncc(-c3ccccc3)c(C(F)(F)F)n2)cc1 | 123 to 126 |
| Cc1nc(NC(=O)c2cnn3c(C(F)F)cc(-c4ccc(C(F)(F)F)cc4)nc23)sc1S(=O)(=O)NC(CO)CO | 217 |
| Cc1c(SCCCCS)ccnc1CO | 58 to 63 |
| Cc1ccc(N2C(=O)c3cc([N+](=O)[O-])cc([N+](=O)[O-])c3C2=O)cc1 | 182 to 183 |
| O=C1c2cc(OCc3ccccc3)ccc2OCC1Oc1cccnc1 (stereo not given) | 133 to 134 |
| c1ccc(N2CCN(CCCCc3cccnc3)CC2)nc1 | 54 to 64 |
| Fc1cc2c(cc1F)C(Cl)Cc1ccccc1S2 (stereo not given) | 68 to 71 |
| Cn1c(C(F)(F)F)ccc(-c2c(F)cc(Cl)c3oc(C(=O)O)cc23)c1=O | 233 to 235 |
| O=C(N[C@H](Cc1ccc(C(F)(F)F)cc1)[C@@H](O)c1ccc(F)cc1)c1ccc2c(c1)OCO2 (racemic) | 180 to 181 |
| Clc1ccc(Cn2cc(C=NNc3nc(-c4ccc(Cl)cc4Cl)cs3)c3ccccc32)c(Cl)c1 | 185 |
| N=C(Nc1ccccc1)Nc1ncccc1OCc1c(F)cccc1F | 136 to 137 |
| O=c1ccc(-c2cccc(F)c2)n[nH]1 | 207 to 209 |
| O=c1[nH]c2ccccc2n1CCN1CCc2c([nH]c3ccccc23)C1 | 214 to 216 |
| COC(=O)c1nc(Br)cc(Br)c1O | 181 to 183 |
| c1ccc(CNn2cnnc2-c2ccc(CN3CCCCCC3)s2)cc1 | 79 to 81 |
| Cn1cc(C(=O)O)c(=O)c2cc3cc(F)c(N4CCN(O)CC4)cc3nc21 | 290 |
| COc1cc2ncc(NC3CCCCC3)nc2cc1OC | 149 to 151 |
| O=S(=O)(Cl)c1ccc2scnc2c1 | 110 to 112 |
| CNC(=O)c1ccc(-c2cccc3nc(Nc4cc(OC)c(OC)c(OC)c4)oc23)cc1 | 258 to 259 |
| N#Cc1ccc2[nH]cc(C3CCC4(CC3)OCCO4)c2c1 | 153 to 155 |

Now from value to compound:

| melting point [°C] | SMILES |
| --- | --- |
| 82 to 84 | CCOC(=O)C(Cl)=Cc1cc(NC(=O)CC(C)CC(=O)O)ccc1Cl (stereo not given) |
| 110 to 112 | CCOC(=O)C(Cc1cc2c([N+](=O)[O-])cccc2[nH]1)[N+](=O)[O-] (stereo not given) |
| 97 to 100 | CC12CCC3c4ccc(OCc5ccccc5)cc4CCC3C1CCC2O (stereo not given) |
| 265 to 266 | COC(=O)c1cccc(-c2nc(C(N)=O)c3[nH]c(=O)n(-c4ccccc4OC)c3n2)c1 |
| 258 | CC(=O)OCC(=O)C1(OC(=O)c2ccccc2)CCC2C3CC(C)C4=CC(=O)C=CC4(C)C3C(O)CC21C (stereo not given) |
| 82 to 83 | CC(C)Nc1cccnc1N1CCN(C(=O)c2ccc(C(=O)N[C@H](CO)C(C)C)cc2)CC1 |
| 185 to 190 | CCOc1nc(C(=O)O)ccc1C#N |
| 137 to 139 | CC(C)(C)c1ccc([N+](=O)[O-])c(C(=O)O)c1 |
| 88.5 to 91 | COc1ccccc1NCN1C(=O)CSC1=O |
| 235 to 237 | CC1COCc2nc3c(N)nc4cc(CCC(=O)N(C)C)ccc4c3n21 (stereo not given) |
| 139 to 140 | CC(C)S(=O)(=O)O[C@H]1C[C@@H](C(=O)O)N(C(=O)c2ccccc2Br)C1 |
| 266 to 268 | Cc1nc2c(O)cccc2c(=O)n1C1CCC(=O)NC1=O (stereo not given) |
| 106 to 107 | CC(C)C(=O)N(CCCCCC(=O)O)C(c1ccccc1)c1ccccc1 |
| 125 to 126 | COC(=O)Cc1c(C)n(-c2nc3ccccc3o2)c2ccc(OC)cc12 |
| 131 to 134 | Cc1cccc(C(=O)NO)c1N(C)S(=O)(=O)c1ccc(OCCCCNC(=O)c2cc3ccccc3o2)cc1 |
| 123 to 124 | COc1ccc(Cn2c(=O)c3ccccc3n(CCCCCl)c2=O)cc1 |
| 207 to 209 | COc1c(C(C)=O)c(OC2SCC(O)C(O)C2O)c(OC)c2occc12 (stereo not given) |
| 124 to 126 | CC(=O)c1ccc(NS(C)(=O)=O)c(Br)c1 |
| 146 to 148 | COc1ccc(C(CC(=O)O)N2Cc3ccccc3C2=O)cc1OC (stereo not given) |
| 239 to 240 | O=C(Nc1cc2c3c(c1)CCCC3CCC2)c1ccc(C(=O)O)nc1 |

| melting point [°C] | SMILES |
| --- | --- |
| 139 to 141 | CCOC(=O)C(=CNc1coc2cc(OC)ccc2c1=O)C(=O)OCC |
| 170 | CC1(C)CC(S(=O)(=O)Cc2cc3c(cc2Cl)OCO3)=NO1 |
| 147 to 148 | Cc1sc(-c2ccccc2)nc1COc1cc(COc2ccccc2CC(=O)O)on1 |
| 73 to 74 | CCCOC(=O)c1sc(C(=O)OCCC)c(OS(=O)(=O)c2ccc(Br)cc2)c1C |
| 182 to 183 | CCOC(=O)c1c(C)cc2c(c1C)c(=O)n(-c1ccccc1Cl)c(=O)n2C(=O)O |
| 89 to 91 | COC(=O)c1ccc(C=CC(=O)c2ccc3c(c2)C(C)(C)CCC3(C)C)cc1 |
| 130 to 131 | CCCCc1nnc(SCc2ccc(OC)cc2)n1Cc1ccc(O)cc1 |
| 170 to 171 | COc1cc(C2COc3c(C)c(C)c(NC(=O)CC(C)(C)C)c(C)c32)ccc1C(C)C (stereo not given) |
| 132 to 133 | C/C=C/c1cc(OC)c2oc(-c3ccc(O)c(OC)c3)c(C)c2c1 |
| 59 to 61 | CCOC(=O)c1c(C)nn(-c2ccccc2N)c1C |
| 284 to 285 | O=C(O)/C=C/c1ccnc(-c2nc(=O)c3ccccc3s2)c1 |
| 177 to 179 | CC(C)(C)OC(=O)N1CCC(N2C(=O)OCc3cc(Cl)ccc32)CC1 |
| 173 to 175 | CCOC(=O)Cc1cc2c(s1)CCN(C(=O)[C@H](Cc1ccccc1)NC(=O)c1ccc(C(=N)N)cc1)C2 |
| 106 to 110 | COc1ccc2c(c1)C(N(CC(=O)O)C(=O)C(C)CSC(C)=O)CC2 (stereo not given) |
| 112 to 115 | CC(Br)C(=O)OCN1C(=O)NC(c2ccccc2)(c2ccccc2)C1=O (stereo not given) |
| 148 | CC=CCNc1cc(C(=O)O)cc(S(N)(=O)=O)c1Sc1ccc(NC(C)=O)cc1 |
| 138 | Cc1ccc(S(=O)(=O)N2[C@@H](CCc3nnco3)CC[C@H]2c2ccc(F)cc2)cc1 (racemic) |
| 138 to 140 | COc1cc2c(cc1OC)C(C(C#N)SCCO)=NCC2 (stereo not given) |
| 237 to 239 | COc1c(-c2cc3c(s2)CCCC3O)ccc2c(=O)c(C(=O)O)cn(C3CC3)c12 (stereo not given) |
| 52 to 55 | COc1ccc(CONCc2ccc(OC)cc2OC)cc1 |
